Assay results as given in patent US6337344B1, “Indole derivatives as inhibitors or factor Xa” (Aventis Pharma Deutschland GmbH, priority 1997, dated 2002).
Counter-ions that a name gives are not always drawn.

Key:
[1] = molecular target: T1, human factor Xa (Homo sapiens, UniProt P00742); experiment: Factor Xa assay (Test 1, a.), chromogenic substrate S-2765; format: biochemical
T1 construct: purchased Enzyme Research Laboratories, Inc; South Bend, Ind
Procedure: Purified enzymes are used in chromogenic assays. To determine the inhibition constant Ki, the IC50 value is corrected for competition with substrate using the formula
Ki'IC50×(1/{1+((substrate concentration)/substrate Km)})
wherein Km is the Michaelis-Menten constant (Chen and Prusoff, Biochem. Pharmacol. 22 (1973), […] which is incorporated herein by reference).
TBS-PEG buffer (50 mM Tris-Cl, pH 7.8, 200 mM NaCl, 0.05% (w/v) PEG-8000, 0.02% (w/v) NaN3) is used for this assay.
The assay is performed by pre-incubating the compound of formula I plus enzyme for 10 min. Then the assay is initiated by adding substrate to obtain a final volume of 100 μl. The initial velocity of chromogenic substrate hydrolysis is measured by the change in absorbance at 405 nm using a Bio-tek Instruments kinetic plate reader (Ceres UV900HDi) at 25° C. during the linear portion of the time course (usually 1.5 min after addition of substrate). The concentration of inhibitor that causes a 50% decrease in the rate of substrate hydrolysis is predicted by linear regression after plotting the relative rates of hydrolysis (compared to the uninhibited control) versus the log of the concentration of the compound of formula I. The enzyme concentration is 0.5 nM and substrate concentration is 140 μM.
The inhibition constants were determined as described above (Test 1, a., Factor Xa Assay).

[2] = molecular target: factor Xa; settings: values of known factor Xa inhibitors stated in the background; cited from earlier work

T1 sequence (P00742 235-488 limits assumed): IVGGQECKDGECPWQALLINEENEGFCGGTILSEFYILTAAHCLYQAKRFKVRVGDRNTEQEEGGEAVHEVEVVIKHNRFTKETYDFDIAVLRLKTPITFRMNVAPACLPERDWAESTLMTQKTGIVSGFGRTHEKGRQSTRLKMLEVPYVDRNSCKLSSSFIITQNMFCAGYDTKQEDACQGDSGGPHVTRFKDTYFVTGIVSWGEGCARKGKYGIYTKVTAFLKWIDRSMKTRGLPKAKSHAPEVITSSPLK
T1 sequence (P00742 41-179 partner limits assumed): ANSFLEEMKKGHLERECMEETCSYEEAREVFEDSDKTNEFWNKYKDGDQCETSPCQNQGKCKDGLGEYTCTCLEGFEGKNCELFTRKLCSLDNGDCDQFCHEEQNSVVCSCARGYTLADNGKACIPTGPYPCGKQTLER

Molecule	Ki [1] [nM]	melting point	Ki [2] [nM]
CC(NC(=O)c1cc2ccccc2n1Cc1cccc(C(=N)N)c1)c1cc[n+](C)cc1 (racemic) [Example 2, (RS)-4-(1-{[1-(3-Amidino-benzyl)-1H-indole-2-carbonyl]-amino}-ethyl)-1-methylpyridinium trifluoroacetate trifluoroacetic acid salt, trifluoroacetate trifluoroacetic acid …]	100		
N=C(N)c1cccc(Cn2c(C(=O)NC(c3ccccc3)c3ccncc3)cc3ccccc32)c1.O=C(O)C(F)(F)F.O=C(O)C(F)(F)F (racemic) [Example 23, (RS)-1-(3-Amidino-benzyl)-1H-indole-2-carboxylic acid α-(4-pyridyl)-benzyl amide trifluoroacetic acid salt]	7000	88 to 92 °C	
COc1cccc2c1cc(C(=O)NC(c1ccccc1)c1cc[n+](C)cc1)n2Cc1cccc(C(=N)N)c1.O=C(O)C(F)(F)F.O=C([O-])C(F)(F)F (racemic) [Example 24, (RS)-4-({[1-(3-Amidino-benzyl)-4-methoxy-1H-indole-2-carbonyl]-amino}-phenyl-methyl)-1-methyl-pyridinium trifluoroacetate trifluoroacetic acid salt, trifluoroacetate trifluoroacetic acid …]	110		
CN1CCC(C(NC(=O)c2cc3ccccc3n2Cc2cccc(C(=N)N)c2)c2ccc3cc(Cl)ccc3c2)CC1.O=C(O)C(F)(F)F.O=C(O)C(F)(F)F (racemic) [Example 27, (RS)-1-(3-Amidino-benzyl)-1H-indole-2-carboxylic acid ((6-chloro-2-naphthyl)-(1-methyl-piperidin-4-yl)-methyl)amide trifluoroacetic acid salt]	610	110 to 120 °C	
N=C(N)c1ccc(C=C2CCCCC(=Cc3ccc(C(=N)N)cc3)C2=O)cc1 [2,7-bis-(4-amidinobenzylidene)-cycloheptanone, reference compound]			~20
C[C@@H](NC(=O)c1cc2cc(OCc3ccccc3)ccc2n1Cc1cccc(C(N)=S)c1)c1ccccc1 [21(4), (R)-5-Benzyloxy-1-(3-thiocarbamoyl-benzyl)-1H-indole-2-carboxylic acid (1-phenyl-ethyl)amide]	4800		
C[N+](C)(C)c1ccc(CNC(=O)c2cc3ccccc3n2Cc2cccc(C(=N)N)c2)cc1 [Example 4, [4-({[1-(3-Amidino-benzyl)-1H-indole-2-carbonyl]-amino}-methyl)-phenyl]-trimethyl-ammonium trifluoroacetate trifluoroacetic acid salt, trifluoroacetate trifluoroacetic acid …]	90		
C[N+](C)(C)Cc1ccc(CNC(=O)c2cc3ccccc3n2Cc2cccc(C(=N)N)c2)cc1 [Example 6, [4-({[1-(3-Amidino-benzyl)-1H-indole-2-carbonyl]-amino}-methyl)-benzyl]-trimethyl-ammonium trifluoroacetate trifluoroacetic acid salt, trifluoroacetate trifluoroacetic acid …]	400		
Cc1cccc2c1cc(C(=O)NCc1ccc([N+](C)(C)C)cc1)n2Cc1cccc(C(=N)N)c1.O=C(O)C(F)(F)F.O=C([O-])C(F)(F)F [Example 35, [4-({[1-(3-Amidino-benzyl)-4-methyl-1H-indole-2-carbonyl]-amino}-methyl)-phenyl]-trimethyl-ammonium trifluoroacetate trifluoroacetic acid salt, trifluoroacetate trifluoroacetic acid …]	9		
CC(=O)O.CC(=O)[O-].C[N+](C)(C)c1ccc(CNC(=O)c2cc3c(O)cccc3n2Cc2cccc(C(=N)N)c2)cc1 [Example 39, [4-({[1-(3-Amidino-benzyl)-4-hydroxy-1H-indole-2-carbonyl]-amino}-methyl)-phenyl]-trimethyl-ammonium acetate acetic acid salt]	7	113 °C (dec.)	
Cc1cccc2c1cc(C(=O)NCc1cccc(C(=N)N)c1)n2Cc1cccc(C(=N)N)c1.O=C(O)C(F)(F)F.O=C(O)C(F)(F)F [Example 47, 1-(3-Amidino-benzyl)-4-methyl-1H-indole-2-carboxylic acid 3-amidino-benzyl amide trifluoroacetic acid salt]	7	242 to 243 °C	
C[N+](C)(C)c1ccc(CNC(=O)c2cc3cc(OCc4ccccc4)ccc3n2Cc2cccc(C(=N)N)c2)cc1.O=C(O)C(F)(F)F.O=C([O-])C(F)(F)F [Example 56, [4-({[5-Benzyloxy-1-(3-amidino-benzyl)-1H-indole-2-carbonyl]-amino}-methyl)-phenyl]-trimethyl-ammonium trifluoroacetate trifluoroacetic acid salt]		60 °C (dec.)	
CC(=O)O.CC(=O)[O-].CC(C)(C)OC(=O)Nc1ccc2c(c1)cc(C(=O)NCc1ccc([N+](C)(C)C)cc1)n2Cc1cccc(C(=N)N)c1 [Example 58, [4-({[1-(3-Amidino-benzyl)-5-tert-butoxycarbonylamino-1H-indole-2-carbonyl]-amino}-methyl)-phenyl]-trimethyl-ammonium acetate acetic acid salt]	14	146 °C (dec.)	
C[N+](C)(C)c1ccc(CNC(=O)c2cc3c(OCc4ccccc4)cccc3n2Cc2cccc(C(=N)N)c2)cc1.[I-] [Example 68, [4-({[1-(3-Amidino-benzyl)-4-benzyloxy-1H-indole-2-carbonyl]-amino}-methyl)-phenyl]-trimethyl-ammonium iodide hydroiodide]		158 °C (dec.)	
N=C(N)c1cccc(CNC(=O)c2cc3c(O)cccc3n2Cc2cccc(C(=N)N)c2)c1.O=C(O)C(F)(F)F.O=C(O)C(F)(F)F [Example 77, 1-(3-Amidino-benzyl)-4-hydroxy-1H-indole-2-carboxylic acid 3-amidino-benzylamide trifluoroacetic acid salt]		128 to 131 °C	
N=C(N)c1ccc(CNC(=O)c2cc3c(O)cccc3n2Cc2cccc(C(=N)N)c2)cc1.O=C(O)C(F)(F)F.O=C(O)C(F)(F)F [Example 78, 1-(3-Amidino-benzyl)-4-hydroxy-1H-indole-2-carboxylic acid 4-amidino-benzylamide trifluoroacetic acid salt]	210	155 to 157 °C	
N=C(N)NCCC[C@H](NC(=O)c1cc2ccccc2n1Cc1ccc(C(=N)N)cc1)C(N)=O [Example 81, 1-(4-Amidinobenzyl)-1H-indole-2-carbonyl-L-arginyl amide trifluoroacetic acid salt]	63000		
N=C(N)c1ccc(C(=O)N2CCc3c(n(Cc4cccc(C(=N)N)c4)c4ccccc34)C2)cc1 [Example 84, 2-(4-Amidino-benzoyl)-9-(3-amidino-benzyl)-1,2,3,4-tetrahydro-9H-pyrido[3,4-b]indole trifluoroacetic acid salt]	900		
C[N+](C)(C)c1ccc(CNC(=O)c2c(Cl)c3ccccc3n2Cc2cccc(C(=N)N)c2)cc1 [Example 106]	40		
Cc1cc(CNC(=O)c2cc3c(O)cccc3n2Cc2cccc(C(=N)N)c2)cc(C(F)(F)F)c1 [Example 112]	13		
N=C(N)c1cccc(CNC(=O)c2c(Cl)c3ccccc3n2Cc2cccc(C(=N)N)c2)c1 [Example 115]	9		
N=C(N)c1cccc(Cn2c(C(=O)NCc3cc(Cl)cc(Cl)c3)cc3c(O)cccc32)c1 [Example 120]	4.8		
COC(=O)c1cccc(CNC(=O)c2cc3c(O)cccc3n2Cc2cccc(C(=N)N)c2)c1 [Example 132]	2000		
tick anticoagulant peptide (YNRLCIKPRDWIDECDSNEGGERAYFRNGKGGCDSFWICPEDHTGADYYSSYRDCFNACI; UniProt P17726 1-60, looked up) [TAP]			~0.5
antistasin (protein, UniProt P15358 18-136, looked up) Antistasin: QGPFGPGCEEAGCPEGSACNIITDRCTCSGVRCRMHCPHGFQRSRYGCEFCKCRLEPMKATCDISECPEGMMCSRLTNKCDCKIDINCRKTCPNGLKRDKLGCEYCECRPKRKLIPRLS			0.05
